Results as given in PubChem BioAssay AID1963830 (Molecular Pharmacology Branch, DTP, NCI, 2024).

System: 922993-354-T-J3-PDC complex spheroid viability
Experiment: Anticancer human tumor 922993-354-T-J3-PDC patient-derived endometrial carcinoma cell line growth inhibition [POLQ]
Conditions: for IC50: curve of first compound; for viability, T/C: stronger effect = lower value
Procedure: Multicellular complex tumor spheroid response to Polymerase (POL) inhibitors (novobiocin, ART-558, RP6685) in combination with a variety of drugs and investigational agents in selected tumor cell lines
The POL inhibitors (novobiocin, ART-558, and RP6685) were evaluated both individually and in combination with standard of care and investigational anticancer small molecules within a complex spheroid model of solid tumors. . Complex spheroids include a stromal component modeled by human endothelial cells (HUVEC) and fibroblasts modeled by human mesenchymal stem cells (MSCs). The concentration ranges selected for each drug and investigational agent were based upon clinically achievable concentrations if the clinical Cmax of the agent was known.
Compounds. The drugs and investigational agents: novobiocin (NSC847541), ART-558 (NSC835418), RP-6685 (NSC848927), peposertib (NSC802822), ceralasertib (NSC780249), elimusertib (NSC800525), camonsertib (NSC841442), AZD-1390 (NSC803789), olaparib (NSC753686), talazoparib (NSC767125), rucaparib (NSC756644), sotorasib (NSC818433), MRTX-1133 (NSC836407), SN-38 (NSC673596), topotecan (NSC609699), epotoside (NSC141540), doxorubicin (NSC123127), gemcitabine (NSC613327), 5-fluorouracil (NSC19893), paclitaxel (NSC125973), vemurafenib (NSC761431), MSA-2 (NSC828583), SN-011 (NSC837082), adavosertib (NSC754352), prexasertib (NSC758257), carboplatin (NSC241240) and oxaliplatin (NSC266046), were obtained from the National Cancer Institute (NCI) Developmental Therapeutics Program Chemical Repository (21). The FDA-approved anticancer drug set is available from the Developmental Therapeutics Program at https://dtp.cancer.gov/organization/dscb/obtaining/. […] The stock solutions were prepared in dimethyl sulfoxide (DMSO, Sigma-Aldrich, St. Louis, MO, cat. D2650), except for the platinum compounds which were prepared in saline (Quality Biological, Gaithersburg, MD, cat. 114-055-101), at 800-fold the tested concentration and stored at -70 degrees C prior to their use. All drugs and investigational agents were tested over a range starting from a high concentration at or near the clinical Cmax and decreasing in half-log increments. If the clinical Cmax for an agent had not been determined, the highest concentration tested was 10 microM, except for SN-38, which was tested at a high concentration of 1 microM.
Cell Culture. All cells were maintained in an incubator at 37 degrees C and 5% CO2 with 95% humidity. The PDC lines were cultured according to standard operating procedures established by the NCI PDMR (https://pdmr.cancer.gov). Table 3 of the manuscript, lists the cell lines along with the number of the three cell types plated to form the mct-spheroids and media for tumor cell growth. After thawing, all PDC lines, except 997537-175-T-J1-PDC and 415267-285-R-J2-PDC, were cultured in Matrigel-coated flasks prepared with a working solution of 1X Ham's F-12 nutrient mix, without supplementation (Thermo Fisher Scientific, cat. 11765054), 100 U/mL penicillin-streptomycin (Thermo Fisher Scientific, cat. 15140122), and 2.5% Matrigel (Corning Inc., Corning, NY, cat. 354248) for the first three passages. The two PDC lines 997537-175-T-J1-PDC and 415267-285-R-J2-PDC were cultured on uncoated flasks. The 857933-349-R-J2-PDC line was cultured in 6C/Colon 1B media containing advanced DMEM/F-12 (Thermo Fisher Scientific, cat. 12634028), 10 mM HEPES (Thermo Fisher Scientific, cat. 15630080), 1X GlutaMAX supplement (Thermo Fisher Scientific, cat. 35050061), 0.1 mg/mL primocin (InvivoGen, San Diego, CA, cat. ant-pm-2), 10% defined fetal bovine serum, heat inactivated (HyClone Laboratories Inc., Logan, UT, cat. SH30070.03HI), 50% L-WRN conditioned media (ATCC, cat. CRL-3276), 1.25 mM N-Acetyl-L-cysteine (Sigma-Aldrich, cat. A9165), 10 mM nicotinamide (Sigma-Aldrich, cat. N0636), 1X B-27 supplement (Thermo Fisher Scientific, cat. 17504044), 1X N-2 supplement (Thermo Fisher Scientific, cat. […]

[1] = second compound 0.0316 µM, first compound 0.0316 µM
[2] = second compound 0.0316 µM, first compound 0.1 µM
[3] = second compound 0.1 µM, first compound 0.0316 µM
[4] = second compound 0.1 µM, first compound 0.1 µM
[5] = second compound 0.316 µM, first compound 0.0316 µM
[6] = second compound 0.316 µM, first compound 0.1 µM
[7] = second compound 1 µM, first compound 0.0316 µM
[8] = second compound 1 µM, first compound 0.1 µM
[9] = second compound 3.16 µM, first compound 0.0316 µM
[10] = second compound 3.16 µM, first compound 0.1 µM
[11] = second compound 10 µM, first compound 0.0316 µM
[12] = second compound 10 µM, first compound 0.1 µM
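Further: spheroids exposed to the agents for one week.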
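Wherever viability, T/C is given: 100% = DMSO vehicle control wells.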

COc1ccc([C@@H](O)c2cc(-c3ncnc4cc(N5CCOCC5)ccc34)c(F)cc2Cl)nn1 + Cc1cccc(N(C)C(=O)C2C(O)CCN2c2nc(C)cc(C(F)(F)F)c2C#N)c1
IC50 (second compound 0.0316 µM): > 10000 nM | IC50 (second compound 0.1 µM): > 10000 nM | IC50 (second compound 0.316 µM): > 10000 nM | IC50 (second compound 1 µM): > 10000 nM | IC50 (second compound 3.16 µM): > 10000 nM | IC50 (second compound 10 µM): > 10000 nM | viability, T/C [1]: 94% | viability, T/C [2]: 85.9% | viability, T/C (second compound 0.0316 µM, first compound 0.316 µM): 97.3% | viability, T/C (second compound 0.0316 µM, first compound 1 µM): 98.3% | viability, T/C (second compound 0.0316 µM, first compound 3.16 µM): 85.4% | viability, T/C (second compound 0.0316 µM, first compound 10 µM): 58.2% | viability, T/C [3]: 97.2% | viability, T/C [4]: 99.5% | viability, T/C (second compound 0.1 µM, first compound 0.316 µM): 104% | viability, T/C (second compound 0.1 µM, first compound 1 µM): 94.6% | viability, T/C (second compound 0.1 µM, first compound 3.16 µM): 81.1% | viability, T/C (second compound 0.1 µM, first compound 10 µM): 63.9% | viability, T/C [5]: 99.9% | viability, T/C [6]: 104% | viability, T/C (second compound 0.316 µM, first compound 0.316 µM): 98.5% | viability, T/C (second compound 0.316 µM, first compound 1 µM): 84.3% | viability, T/C (second compound 0.316 µM, first compound 3.16 µM): 82.9% | viability, T/C (second compound 0.316 µM, first compound 10 µM): 62.6% | viability, T/C [7]: 101% | viability, T/C [8]: 93.5% | viability, T/C (second compound 1 µM, first compound 0.316 µM): 103% | viability, T/C (second compound 1 µM, first compound 1 µM): 103% | viability, T/C (second compound 1 µM, first compound 3.16 µM): 79% | viability, T/C (second compound 1 µM, first compound 10 µM): 62.7% | viability, T/C [9]: 103% | viability, T/C [10]: 102% | viability, T/C (second compound 3.16 µM, first compound 0.316 µM): 102% | viability, T/C (second compound 3.16 µM, first compound 1 µM): 86.9% | viability, T/C (second compound 3.16 µM, first compound 3.16 µM): 80.2% | viability, T/C (second compound 3.16 µM, first compound 10 µM): 60.5% | viability, T/C [11]: 93.6% | viability, T/C [12]: 95% | viability, T/C (second compound 10 µM, first compound 0.316 µM): 91.4% | viability, T/C (second compound 10 µM, first compound 1 µM): 83.7% | viability, T/C (second compound 10 µM, first compound 3.16 µM): 78% | viability, T/C (second compound 10 µM, first compound 10 µM): 57.9%

Cn1ncnc1[C@H]1c2n[nH]c(=O)c3cc(F)cc(c23)N[C@@H]1c1ccc(F)cc1 + Cc1cccc(N(C)C(=O)C2C(O)CCN2c2nc(C)cc(C(F)(F)F)c2C#N)c1
IC50 (second compound 0.0316 µM): > 100 nM | IC50 (second compound 0.1 µM): > 100 nM | IC50 (second compound 0.316 µM): > 100 nM | IC50 (second compound 1 µM): > 100 nM | IC50 (second compound 3.16 µM): 83 nM | IC50 (second compound 10 µM): 30.7 nM | viability, T/C (second compound 0.0316 µM, first compound 0.000316 µM): 97.8% | viability, T/C (second compound 0.0316 µM, first compound 0.001 µM): 95.5% | viability, T/C (second compound 0.0316 µM, first compound 0.00316 µM): 111% | viability, T/C (second compound 0.0316 µM, first compound 0.01 µM): 98.3% | viability, T/C [1]: 99% | viability, T/C [2]: 70.2% | viability, T/C (second compound 0.1 µM, first compound 0.000316 µM): 108% | viability, T/C (second compound 0.1 µM, first compound 0.001 µM): 105% | viability, T/C (second compound 0.1 µM, first compound 0.00316 µM): 94.2% | viability, T/C (second compound 0.1 µM, first compound 0.01 µM): 94.4% | viability, T/C [3]: 90.2% | viability, T/C [4]: 74.9% | viability, T/C (second compound 0.316 µM, first compound 0.000316 µM): 107% | viability, T/C (second compound 0.316 µM, first compound 0.001 µM): 106% | viability, T/C (second compound 0.316 µM, first compound 0.00316 µM): 102% | viability, T/C (second compound 0.316 µM, first compound 0.01 µM): 106% | viability, T/C [5]: 91.2% | viability, T/C [6]: 67.2% | viability, T/C (second compound 1 µM, first compound 0.000316 µM): 107% | viability, T/C (second compound 1 µM, first compound 0.001 µM): 108% | viability, T/C (second compound 1 µM, first compound 0.00316 µM): 111% | viability, T/C (second compound 1 µM, first compound 0.01 µM): 96.8% | viability, T/C [7]: 97.4% | viability, T/C [8]: 66.2% | viability, T/C (second compound 3.16 µM, first compound 0.000316 µM): 100% | viability, T/C (second compound 3.16 µM, first compound 0.001 µM): 101% | viability, T/C (second compound 3.16 µM, first compound 0.00316 µM): 99.9% | viability, T/C (second compound 3.16 µM, first compound 0.01 µM): 96.8% | viability, T/C [9]: 92.3% | viability, T/C [10]: 41.6% | viability, T/C (second compound 10 µM, first compound 0.000316 µM): 111% | viability, T/C (second compound 10 µM, first compound 0.001 µM): 97.4% | viability, T/C (second compound 10 µM, first compound 0.00316 µM): 99% | viability, T/C (second compound 10 µM, first compound 0.01 µM): 72.9% | viability, T/C [11]: 49.8% | viability, T/C [12]: 32%
